# Measured values as given in the supplement of paper PMC10412643.
# How the values were obtained:
# Conditions in all cases: CAMHB, incubation time 20 h
# cefiderocol = compound: CC(C)(O/N=C(\C(=O)N[C@@H]1C(=O)N2C(C(=O)[O-])=C(C[N+]3(CCNC(=O)c4ccc(O)c(O)c4Cl)CCCC3)CS[C@H]12)c1csc(N)n1)C(=O)O [cefiderocol]
# meropenem = compound: C[C@@H](O)[C@H]1C(=O)N2C(C(=O)O)=C(S[C@@H]3CN[C@H](C(=O)N(C)C)C3)[C@H](C)[C@H]12 [meropenem]
# ceftazidime = compound: CC(C)(O/N=C(\C(=O)N[C@@H]1C(=O)N2C(C(=O)[O-])=C(C[n+]3ccccc3)CS[C@H]12)c1csc(N)n1)C(=O)O [ceftazidime]
Test System,MIC (cefiderocol; avibactam 0 µg/mL) [µg/mL],MIC (cefiderocol; avibactam 8 µg/mL) [µg/mL],MIC (meropenem; avibactam 0 µg/mL) [µg/mL],MIC (meropenem; avibactam 8 µg/mL) [µg/mL],MIC (ceftazidime; avibactam 0 µg/mL) [µg/mL],MIC (ceftazidime; avibactam 8 µg/mL) [µg/mL]
A. xylosoxidans ACH02,0.25,0.25,1,1,2,2
A. xylosoxidans ACH03,0.125,0.125,0.25,0.25,1,1
A. xylosoxidans ACH09,0.25,0.25,0.125,0.125,1,1
B. cenocepacia 110041,0.0625,0.0625,32,4,–,–
B. cenocepacia 130723,0.5,0.25,4,1,16,8
B. cenocepacia 134991,> 4,> 4,2,2,8,8
B. cenocepacia BC7,> 4,> 4,16,1,16,16
B. cenocepacia F3071909,> 4,> 4,16,2,32,32
B. cenocepacia F4200989-3,2,1,32,4,128,32
B. cenocepacia F9141525,0.5,0.5,32,4,128,16
B. cenocepacia G11815681,2,0.5,32,2,16,8
B. cenocepacia K56-2,0.125,0.125,16,2,32,–
B. cenocepacia VC10414,0.125,0.125,32,2,8,–
B. cenocepacia VC14488,0.25,0.25,4,1,–,2
B. cenocepacia VC14543,0.125,0.0625,16,4,8,8
B. cenocepacia VC14761,0.125,0.0625,4,1,2,2
B. contaminans 21NG595759,1,2,32,8,16,8
B. contaminans 21NG609698,2,2,32,8,16,–
B. contaminans LMG23361,0.125,0.125,4,0.5,2,2

Test System,MIC (cefiderocol; avibactam 0 µg/mL) [µg/mL],MIC (cefiderocol; avibactam 8 µg/mL) [µg/mL],MIC (meropenem; avibactam 0 µg/mL) [µg/mL],MIC (meropenem; avibactam 8 µg/mL) [µg/mL],MIC (ceftazidime; avibactam 0 µg/mL) [µg/mL],MIC (ceftazidime; avibactam 8 µg/mL) [µg/mL]
B. dolosa AU0645,> 4,> 4,16,2,> 128,8
B. dolosa AU2167,> 4,> 4,32,1,64,–
B. dolosa AU6940,2,2,32,2,16,16
B. dolosa CEP021,0.5,0.5,2,1,2,1
B. dolosa LM018941,> 4,> 4,16,0.5,16,2
B. gladioli 113611,4,4,2,2,32,32
B. gladioli 132208,0.5,0.5,0.5,0.5,2,2
B. gladioli VC14812,0.5,0.5,8,8,32,16
B. gladioli VC19233,0.25,0.25,1,1,–,2
B. multivorans 130034,0.125,0.125,8,4,8,8
B. multivorans 131077,0.125,0.125,4,1,8,8
B. multivorans 134955,0.125,0.125,8,1,8,8
B. multivorans C5393,0.25,0.25,16,1,8,–
B. multivorans F9091687,0.25,0.25,0.5,0.5,2,2
B. multivorans LM013010,0.25,0.25,8,1,–,–
B. multivorans V1120157,0.125,0.125,1,1,2,2
B. multivorans VC9825,0.25,0.125,2,1,2,2
B. multivorans VC15535,0.5,0.5,16,8,32,16
B. multivorans VC15555,> 4,> 4,8,4,2,2

Test System,MIC (cefiderocol; avibactam 0 µg/mL) [µg/mL],MIC (cefiderocol; avibactam 8 µg/mL) [µg/mL],MIC (meropenem; avibactam 0 µg/mL) [µg/mL],MIC (meropenem; avibactam 8 µg/mL) [µg/mL],MIC (ceftazidime; avibactam 0 µg/mL) [µg/mL],MIC (ceftazidime; avibactam 8 µg/mL) [µg/mL]
B. multivorans VC19694,1,1,8,4,–,1
B. vietnamiensis CEP40,0.125,0.0625,1,1,–,2
B. vietnamiensis VC11431,1,0.125,16,1,32,2
B. vietnamiensis VC18984,> 4,> 4,8,4,16,–
P. aeruginosa 20NB681421,1,1,1,0.5,4,4
P. aeruginosa 21NE72623,> 4,> 4,0.5,0.125,16,2
P. aeruginosa 70,0.5,0.5,0.125,0.125,0.5,0.5
P. aeruginosa 71,4,4,32,4,> 128,4
P. aeruginosa 74,> 4,> 4,16,2,128,2
P. aeruginosa PA14,1,1,0.5,0.25,2,2
P. aeruginosa PAO1,1,1,0.5,0.5,1,1
S. maltophilia 03 T2510,1,1,> 64,> 64,32,32
S. maltophilia 04 T22674,0.5,0.5,16,16,2,2
S. maltophilia 05 41846,0.5,0.5,> 64,> 64,4,4
S. maltophilia 20NC580771,0.25,0.25,> 64,> 64,> 128,> 128
S. maltophilia 21NE928511,> 4,> 4,> 64,> 64,> 128,> 128
S. maltophilia D457,0.125,0.125,32,32,1,1
S. maltophilia K279a,0.125,0.125,2,2,2,1
